Patent US20160302411A1, “BLENDS AND THEIR USE IN THE CONTROLLING AND/OR TRAPPING OF MOTHS” (BIOFORSK (THE NORWEGIAN INSTITUTE FOR AGRICULTURAL AND …, priority 2013, published 2016)

Tested on: antennae of mated female C. nigricana
Assay: GC-EAD electro-antennography, antennal response to synthetic pea volatiles
Set-up: species or system Cydia nigricana
Details: 10 μg in 10 μl hexane on filter paper, puff 10 ml/sec during 0.2 sec
Method: C. nigricana were collected as larvae in the North of Hesse, Germany. The keeping of the insects followed the protocol of Thöming and Saucke (2011). Emerging adults mated in Plexiglas cages (30×30×30 cm) in a climate chamber (18±2° C., 60-70% RH, 18:6h L:D). The moths were provided with 10%-honey water solution and water until the experiment. Antennal recordings and wind tunnel tests were done with five-to-seven-days old mated females. After the experiments, females were dissected to verify their mating status and only mated females were used for analysis.
The synthetic odour sources were prepared to mimic natural pea flower odour. The quantity, ratio and blend composition was based on the identification and quantification of compounds emitted from detached pea flowers (50 flowers/headspace sample; mean value, n=10) of P. sativum (cv. AVOLA). The synthetic analogues of all 28 identified compounds released from pea plant material (Table 1) were used for combined gas chromatography-electroantennal detection (GC-EAD) analysis.
GC-EAD was used for antennal recordings on a HP 6890N gas chromatograph, equipped with an HP-5 (30 m×320 μm×0.25 μm; Agilent, Santa Clara, Calif., US) capillary GC column, programmed from 40° C. (hold for 0.5 min) at 8° C./min to 160° C., then 25° C./min to 230° C. (hold for 4 min), and coupled with an electro-antennogram apparatus (Syntech, Hilversum, The Netherlands). The outlet of the GC column was split in a 1:1 ratio between the flame ionization detector (FID) and a pair of cut pea moth antennae which was connected to the EAD. The antennae were mounted in a holder (Syntech) between two silver electrodes, using electrically conductive Gel (Parker, Fairfield, N.J., US). The EAD capillary effluent was delivered to the antennae through a heated transfer line (Syntech) in a glass tube (12 cm×8 mm) in which humidified air was flowing through. The antennal signal and the FID signal were amplified and recorded simultaneously using Syntech software. Each sample injected on the GC contained 5-9 synthetic compounds with different retention times. Each compound was injected at four doses (200 ng, 60 ng, 20 ng, 6 ng), equivalent to 100 ng, 30 ng, 10 ng, 3 ng tested on the antennae. The antennal responses towards compounds and dose rates, respectively, were replicated three to five times, always using a new pair of antennae. […] Only antennae with differences less than 5 μV between the puff before and after the treatment were used for analysis.

Compound	antennal response to odour puff (antennal condition test)
C=C/C=C(\C)CCC=C(C)C [DMNT, 4,8-dimethyl-1, (E) 3,7-nonatriene, reference compound]	reproducible antennal responses

Same assay, conditions: GC-EAD dose response over four doses (FIG. 1)

Compound	increase of antennal response with dose, ANOVA P
CC/C=C\CCO [(Z)-3-hexenol]	0.6578
CC/C=C\CCOC(C)=O [(Z)-3-hexenyl acetate]	0.0091
CCCCCCCC=O [octanal]	< 0.0001
CCC/C=C/C=O [2-(E)-hexenal]	0.0139
C=C/C(C)=C/CC=C(C)C [(E)-β-ocimene]	0.0051
C=C/C(C)=C\CC=C(C)C [(Z)-β-ocimene]	0.0252
CCCCCCO [1-hexanol]	0.0003
CCCCCCCCC=O [nonanal]	0.0067
CCC/C=C/CO [(E)-2-hexen-1-ol]	0.0049
